From PubChem BioAssay AID1845196 (Molecular Pharmacology Branch, DTP, NCI, 2023)

Test system: 292921-168-R tumor spheroid viability
Assay: Anticancer human tumor 292921-168-R patient-derived pancreatic carcinoma cell line growth inhibition
Details: spheroids with HUVEC and MSC; for viability, T/C: stronger effect = lower value
In short: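 Complex tumor spheroids combined malignant cells with endothelial cells and mesenchymal stem cells. DNA-damaging drugs and DNA repair inhibitors were tested alone and in combination, at half-log dilutions down from clinical Cmax (top 10 microM if Cmax unknown), 0.25% DMSO final.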

[1] = curve of first compound, second compound 0.003 µM
[2] = second compound 0.003 µM, first compound 0.00949 µM
[3] = second compound 0.003 µM, first compound 0.03 µM
[4] = second compound 0.003 µM, first compound 0.0949 µM
[5] = second compound 0.003 µM, first compound 0.3 µM
[6] = second compound 0.003 µM, first compound 0.949 µM
[7] = second compound 0.003 µM, first compound 3 µM
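Further: spheroids exposed to compounds for 7 days.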

## CNCc1ccc(-c2cc(-c3nc(-c4ccc(S(=O)(=O)C(C)C)cc4)cnc3N)on2)cc1 + CC[C@@]1(O)C(=O)OCc2c1cc1n(c2=O)Cc2cc3c(CN(C)C)c(O)ccc3nc2-1
[1]
  IC50: 107 nM
Curve of first compound, second compound 0.00949 µM
  IC50: 69.2 nM
Curve of first compound, second compound 0.03 µM
  IC50: < 9.49 nM
Curve of first compound, second compound 0.0949 µM
  IC50: < 9.49 nM
Curve of first compound, second compound 0.3 µM
  IC50: < 9.49 nM
[2]
  viability, T/C: 92.2%
[3]
  viability, T/C: 77.3%
[4]
  viability, T/C: 55.9%
[5]
  viability, T/C: 21.1%
[6]
  viability, T/C: 16.6%
[7]
  viability, T/C: 8.99%
Second compound 0.00949 µM, first compound 0.00949 µM
  viability, T/C: 73.1%
Second compound 0.00949 µM, first compound 0.03 µM
  viability, T/C: 74.7%
Second compound 0.00949 µM, first compound 0.0949 µM
  viability, T/C: 41%
Second compound 0.00949 µM, first compound 0.3 µM
  viability, T/C: 16.7%
Second compound 0.00949 µM, first compound 0.949 µM
  viability, T/C: 15.6%
Second compound 0.00949 µM, first compound 3 µM
  viability, T/C: 10.3%
Second compound 0.03 µM, first compound 0.00949 µM
  viability, T/C: 35.9%
Second compound 0.03 µM, first compound 0.03 µM
  viability, T/C: 32.9%
Second compound 0.03 µM, first compound 0.0949 µM
  viability, T/C: 27%
Second compound 0.03 µM, first compound 0.3 µM
  viability, T/C: 14.7%
Second compound 0.03 µM, first compound 0.949 µM
  viability, T/C: 13.4%
Second compound 0.03 µM, first compound 3 µM
  viability, T/C: 9.47%
Second compound 0.0949 µM, first compound 0.00949 µM
  viability, T/C: 12.6%
Second compound 0.0949 µM, first compound 0.03 µM
  viability, T/C: 15%
Second compound 0.0949 µM, first compound 0.0949 µM
  viability, T/C: 11.2%
Second compound 0.0949 µM, first compound 0.3 µM
  viability, T/C: 10.1%
Second compound 0.0949 µM, first compound 0.949 µM
  viability, T/C: 10.3%
Second compound 0.0949 µM, first compound 3 µM
  viability, T/C: 2.13%
Second compound 0.3 µM, first compound 0.00949 µM
  viability, T/C: 4.63%
Second compound 0.3 µM, first compound 0.03 µM
  viability, T/C: 4.83%
Second compound 0.3 µM, first compound 0.0949 µM
  viability, T/C: 4.59%
Second compound 0.3 µM, first compound 0.3 µM
  viability, T/C: 5.23%
Second compound 0.3 µM, first compound 0.949 µM
  viability, T/C: 6.72%
Second compound 0.3 µM, first compound 3 µM
  viability, T/C: 0.97%

## CC[C@@]1(O)C(=O)OCc2c1cc1n(c2=O)Cc2cc3c(CN(C)C)c(O)ccc3nc2-1
Compound 0.003 µM
  viability, T/C: 94.9% [middle of 10 runs]
Compound 0.00949 µM
  viability, T/C: 77.4% [middle of 10 runs]
Compound 0.03 µM
  viability, T/C: 36.8% [middle of 10 runs]
Compound 0.0949 µM
  viability, T/C: 12.2% [middle of 10 runs]
Compound 0.3 µM
  viability, T/C: 4.45% [middle of 10 runs]
Compound alone, run of 10/17/2019
  IC50: 19.4 nM [middle of 5 runs]
Compound alone, run of 10/25/2019
  IC50: 22.6 nM [middle of 4 runs]

## Cn1ncnc1[C@H]1c2n[nH]c(=O)c3cc(F)cc(c23)N[C@@H]1c1ccc(F)cc1 + COc1cc2c(cc1O)CCNC21CSC2c3c(OC(C)=O)c(C)c4c(c3C(COC1=O)N1C(O)C3Cc5cc(C)c(OC)c(O)c5C(C21)N3C)OCO4
Curve of first compound, second compound 30 pM
  IC50: 646 nM
Curve of first compound, second compound 94.9 pM
  IC50: 233 nM
Curve of first compound, second compound 0.0003 µM
  IC50: < 9.49 nM
Curve of first compound, second compound 0.000949 µM
  IC50: < 9.49 nM
[1]
  IC50: < 9.49 nM
Second compound 30 pM, first compound 0.00949 µM
  viability, T/C: 103%
Second compound 30 pM, first compound 0.03 µM
  viability, T/C: 86.9%
Second compound 30 pM, first compound 0.0949 µM
  viability, T/C: 76.5%
Second compound 30 pM, first compound 0.3 µM
  viability, T/C: 70.5%
Second compound 30 pM, first compound 0.949 µM
  viability, T/C: 41.4%
Second compound 30 pM, first compound 3 µM
  viability, T/C: 11.9%
Second compound 94.9 pM, first compound 0.00949 µM
  viability, T/C: 85.1%
Second compound 94.9 pM, first compound 0.03 µM
  viability, T/C: 69.8%
Second compound 94.9 pM, first compound 0.0949 µM
  viability, T/C: 65.1%
Second compound 94.9 pM, first compound 0.3 µM
  viability, T/C: 47.5%
Second compound 94.9 pM, first compound 0.949 µM
  viability, T/C: 26.4%
Second compound 94.9 pM, first compound 3 µM
  viability, T/C: 9.68%
Second compound 0.0003 µM, first compound 0.00949 µM
  viability, T/C: 26.6%
Second compound 0.0003 µM, first compound 0.03 µM
  viability, T/C: 29.4%
Second compound 0.0003 µM, first compound 0.0949 µM
  viability, T/C: 24.2%
Second compound 0.0003 µM, first compound 0.3 µM
  viability, T/C: 17.1%
Second compound 0.0003 µM, first compound 0.949 µM
  viability, T/C: 14.6%
Second compound 0.0003 µM, first compound 3 µM
  viability, T/C: 7%
Second compound 0.000949 µM, first compound 0.00949 µM
  viability, T/C: 4.23%
Second compound 0.000949 µM, first compound 0.03 µM
  viability, T/C: 4.2%
Second compound 0.000949 µM, first compound 0.0949 µM
  viability, T/C: 3.68%
Second compound 0.000949 µM, first compound 0.3 µM
  viability, T/C: 2.89%
Second compound 0.000949 µM, first compound 0.949 µM
  viability, T/C: 1.55%
Second compound 0.000949 µM, first compound 3 µM
  viability, T/C: 0.27%
[2]
  viability, T/C: 0.19%
[3]
  viability, T/C: 0.19%
[4]
  viability, T/C: 0.17%
[5]
  viability, T/C: 0.22%
[6]
  viability, T/C: 0.18%
[7]
  viability, T/C: 0.42%
